Tested on: male patients taking selective serotonin reuptake inhibitors
Experiment: Crossover home-use trial of sublingual apomorphine in male patients taking SSRIs
Type: in vivo, human
Details: apomorphine versus placebo
Procedure: A crossover study of 1500 patients in a home-use trial of apomorphine on male patients was performed.
In the crossover study, a 2-4 week baseline period was used to evaluate subjects. After this time, during an initial four week treatment period, subjects received either a placebo or apomorphine, without knowing whether or not they had received the active medication. The dosage was either 2, 4, 5 or 6 mg. This initial treatment period was followed by a 24-96 hour washout period, in which no medication was taken. Subsequently, a second four week treatment period, subjects who previously had received apomorphine, were given a placebo, and subjects who previously had received the placebo were given apomorphine. Subject were to attempt coitus once each week after taking a single tablet of apomorphine sublingually. After each attempt, the subject and their partner completed a sexual function questionnaire which was later evaluated and used for final statistical analysis. In the analysis, the data for patients receiving 2, 4, 5 or 6 mg dosages was pooled.

CN1CCc2cccc3c2[C@H]1Cc1ccc(O)c(O)c1-3 [apomorphine, (R)-5,6,6a,7-tetrahydro-6-methyl-4H-dibenzo-[de,g]quinoline-10,11-diol]
patients on SSRI drugs able to have intercourse after taking apomorphine, relative to placebo: twice as many

Source: patent US6528521B2, “Treatment of anti-depression drug-induced sexual dysfunction with apomorphine” (Tap Pharmaceutical Products, Inc., priority 2000, dated 2003)
